{
  "source": "patent US10183011B2",
  "about": "“Anti-depression compounds” (Board of Regents of the University of Texas System, priority 2009, dated 2019)",
  "key": {"hippocampal neurogenesis": {"tested_on": "hippocampal neurogenesis", "experiment": "Neurogenic efficacy of orally administered compound, dose response", "type": "in vivo, mouse", "details": "for pro-neurogenic or neuroprotective efficacy, oral: daily oral gavage for 7 days", "description": "FIG. 7: Neurogenic efficacy of orally administered Example 45 Compound was dose-related. […] Results shown are the average obtained from analysis of 5 adult wild type male mice at each dose.\nPharmacokinetic analysis of Example 45 Compound in plasma and whole brain tissue was undertaken after single IV, IP and oral gavage administrations. […] These favorable pharmacological properties facilitated a dose response experiment wherein daily oral administration of Example 45 Compound to adult mice was monitored for both brain levels of the chemical and pro-neurogenic efficacy (FIG. 7)."}, "[1]": {"tested_on": "newborn neurons in the dentate gyrus", "experiment": "BrdU pulse-chase and doublecortin staining with oral dosing for 30 days", "type": "in vivo, mouse (C57/B6)", "protocol": "FIG. 10A and FIG. 10B: Example 45 Compound enhances the survival of newborn neurons in the dentate gyrus. […] (FIG. 10B) Example 45 Compound enhances hippocampal neurogenesis by promoting survival of newborn neurons. Three month old wild type C57/B6 male mice were exposed to orally-delivered Example 45 Compound or vehicle for 30 days (n=5 animals/group), administered a single pulse of BrdU via IP injection (150 mg/kg), and then sacrificed 1 hour, 1 day, 5 days or 30 days later for immunohistochemical detection of BrdU incorporation into cells localized in the subgranular layer of the dentate gyrus. […] In this longer-term trial, BrdU+ cells were observed both in the SGZ and the granular layer of the dentate gyrus.\nThe nature of the cells produced in the subgranular zone of the dentate gyrus was investigated when Example 45 Compound was administered as follows. Animals were exposed to oral administration of Example 45 Compound for 30 days. Brain tissue was then prepared for immunohistochemical staining with an antibody to doublecortin (DCX), a microtubule-associated protein that serves as a marker of neurogenesis in the dentate gyrus by virtue of transient expression in newly formed neurons, but not glial cells, between the timing of their birth and final maturation (Brown et al., 2003).\nExample 45 Compound-mediated neurogenesis was next investigated to see whether it was attributable to increased cell proliferation or protection of newborn cells from cell death during the time between their birth and eventual incorporation into the granular layer of the dentate gyrus. This was accomplished by comparing the ability of Example 45 Compound to enhance either short- or long-term increases in the incorporation of BrdU in the dentate gyrus (FIG. 10B). Animals exposed to orally-delivered Example 45 Compound or vehicle for 30 days were administered a single pulse of BrdU via IP injection. Short-term effects on neuron birth were monitored by sacrificing animals one hour post-BrdU injection, followed by fixation of the tissue, sectioning and immunohistochemical detection of BrdU incorporation into cells localized in the subgranular layer of the dentate gyrus. […] It is hypothesized that these cells represent mature neurons that have migrated into the granular layer, completed the differentiation process, and incorporated themselves into the dentate gyrus as properly wired neurons. Observations supportive of this interpretation will be presented in a subsequent section of this document. In summary, these experiments give evidence that Example 45 Compound enhances the formation of neurons in the mature hippocampus, and that its mode of action would appear to take place at some point subsequent to their birth."}, "hERG channel": {"molecular_target": "hERG channel (Homo sapiens, UniProt Q12809)", "sequence (Q12809 whole entry)": "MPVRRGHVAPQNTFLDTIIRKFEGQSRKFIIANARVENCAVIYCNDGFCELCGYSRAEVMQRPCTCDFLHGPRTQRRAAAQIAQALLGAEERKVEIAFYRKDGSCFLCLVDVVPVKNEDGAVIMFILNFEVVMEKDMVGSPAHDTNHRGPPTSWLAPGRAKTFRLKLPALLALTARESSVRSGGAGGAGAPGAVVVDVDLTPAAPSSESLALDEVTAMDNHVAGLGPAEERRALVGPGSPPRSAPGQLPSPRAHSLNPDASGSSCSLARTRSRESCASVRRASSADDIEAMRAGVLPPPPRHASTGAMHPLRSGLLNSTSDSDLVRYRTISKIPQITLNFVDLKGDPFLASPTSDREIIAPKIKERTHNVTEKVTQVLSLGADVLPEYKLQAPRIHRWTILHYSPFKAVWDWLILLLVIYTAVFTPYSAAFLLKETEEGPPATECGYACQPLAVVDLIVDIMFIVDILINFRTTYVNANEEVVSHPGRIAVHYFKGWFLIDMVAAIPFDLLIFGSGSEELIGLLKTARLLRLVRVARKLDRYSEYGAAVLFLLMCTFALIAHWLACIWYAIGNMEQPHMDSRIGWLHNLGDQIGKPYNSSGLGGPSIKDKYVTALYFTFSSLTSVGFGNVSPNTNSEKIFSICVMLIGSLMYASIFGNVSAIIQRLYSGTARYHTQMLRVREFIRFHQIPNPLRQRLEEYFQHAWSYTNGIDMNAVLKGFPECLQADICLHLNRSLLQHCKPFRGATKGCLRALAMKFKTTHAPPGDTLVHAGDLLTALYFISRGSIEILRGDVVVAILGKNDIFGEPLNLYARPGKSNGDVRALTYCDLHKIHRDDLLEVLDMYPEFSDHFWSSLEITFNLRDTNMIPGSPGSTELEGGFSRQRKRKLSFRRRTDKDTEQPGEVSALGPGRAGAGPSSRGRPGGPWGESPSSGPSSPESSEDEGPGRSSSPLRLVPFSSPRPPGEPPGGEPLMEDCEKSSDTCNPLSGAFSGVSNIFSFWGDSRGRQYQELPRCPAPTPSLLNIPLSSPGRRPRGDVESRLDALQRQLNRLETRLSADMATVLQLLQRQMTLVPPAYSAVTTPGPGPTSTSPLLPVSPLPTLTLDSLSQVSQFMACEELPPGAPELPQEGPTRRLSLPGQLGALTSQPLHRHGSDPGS", "experiment": "hERG channel binding"}, "[2]": {"tested_on": "G93A-SOD1 transgenic mice", "experiment": "G93A-SOD1 model of ALS, treatment from 40 days of age", "type": "in vivo, mouse", "protocol": "FIG. 24A, FIG. 24B, FIG. 24C and FIG. 24D. Example 45 Compound (P7C3) Provides Therapeutic Benefit in Animal Model of Amyotrophic Lateral Sclerosis (ALS). Female G93A SOD1 mice (n=30 in each group, with all mice sibling matched across treatment groups) were treated with either vehicle or P7C3 (10 mg/kg i.p. twice daily) starting at 40 days of age. […] This score is determined as follows: ‘0’=full extension of hind legs away from lateral midline when the test mouse is suspended by its tail, and can hold this for 2 seconds, suspended 2-3 times; ‘1’=collapse or partial collapse of leg extension towards lateral midline (weakness) or trembling of hind legs during tail suspension; ‘2’=toes curl under at least twice during walking of 12 inches, or any part of foot drags along cage bottom/table; ‘3’=rigid paralysis or minimal joint movement, foot not being used for forward motion; and ‘4’=mouse cannot right itself within 30 seconds from either side. With further disease progression, vehicle-treated mice show the expected decline in retention time on the accelerating rotarod, with retention time averaged across 4 trials (FIG. 24C, open bars). P7C3-treated mice, however, show a consistent trend towards improved performance on this task after onset of disease (FIG. 24C, filled bars), with statistically significant improvement on days 131, 138 and 145 (*, p<0.001, Student's t Test). All graphical data shown above is mean+/−SEM, with statistical analysis conducted using the Student's t Test). As another means of disease progression, walking gait was evaluated. […] Front paws are dipped in red ink, and back paws are dipped in black ink. […] All analysis was conducted blind to treatment group.\nP7C3 was intraperitoneally administered to female G93A-SOD1 transgenic mice using a treatment paradigm of 10 mg/kg P7C3 i.p. twice a day, compared to vehicle, starting at 40 days of age. This treatment scheme was selected based on standard protocols for initial proof of concept screens in these mice. To control for transgene copy number, mice are sibling matched between treatment groups, as per standard protocol. After initiation of P7C3 or vehicle treatment, date of onset of illness is determined by peak weight, and initial progression of disease is defined as the day at which mice fall to 10% below their maximum weight. Mice are also assessed daily by a standard determination of neurological severity score, with a score of 2 or worse for two consecutive days serving as an additional marker of illness progression. This score is determined blind to treatment group with the scoring system described in the legend for the figure. […]\nAs an initial test of efficacy in this disease model, we intraperitoneally administered P7C3 to female G93A-SOD1 transgenic mice using a treatment paradigm of 20 mg/kg/day P7C3, with vehicle administered to siblings, starting at 40 days of age. […] To control for transgene copy number, mice were sibling matched between treatment groups, as per standard protocol, and quantitative PCR was performed to ensure that the copy number was maintained within the normal range. After initiation of P7C3 or vehicle treatment, date of onset of illness was determined by peak weight, and initial progression of disease was defined as the day at which mice fell to 10% below their maximum weight. Mice were also assessed daily by a standard measure of neurological severity score ranging from 0-4, with a higher number reflecting greater neurologic impairment. […]"}, "[3]": {"details": "10 mg/kg i.p. twice a day from 40 days of age"}},
  "note": "“Also recorded” adds a separate entry of the source.",
  "data": [
    {"compound": "OC(CNc1ccccc1)Cn1c2ccc(Br)cc2c2cc(Br)ccc21", "note": "(stereo not shown) [Example 45 Compound]", "values": [
      {"measurement": "oral dose giving maximal pro-neurogenic efficacy", "setting": "hippocampal neurogenesis; daily oral administration to adult mice", "value": "≥ 5", "unit": "mg/kg"},
      {"measurement": "pro-neurogenic or neuroprotective efficacy, oral", "setting": "hippocampal neurogenesis; doses 5 to 40 mg/kg", "value": "roughly double that of vehicle control"},
      {"measurement": "pro-neurogenic or neuroprotective efficacy, oral", "setting": "hippocampal neurogenesis; doses below 1.0 mg/kg", "value": "no greater than vehicle control"},
      {"measurement": "doublecortin (DCX) staining of newborn neurons", "setting": "[1]; 20 mg/kg daily for 30 days by oral gavage", "value": "increased dramatically; also recorded: substantially increased"},
      {"measurement": "increase in BrdU+ cells compared to vehicle", "setting": "[1]; 5 days after BrdU pulse", "value": 25, "unit": "%"},
      {"measurement": "increase in abundance of BrdU+ cells in the dentate gyrus relative to vehicle", "setting": "[1]; daily oral dose for 30 days starting 24 hours after BrdU pulse", "value": 5, "unit": "fold"},
      {"measurement": "BrdU+ cells versus vehicle, short term", "setting": "[1]; oral for 30 days, 1 hour or 1 day after BrdU pulse", "value": "did not lead to an elevation in the level of BrdU-positive cells relative to vehicle; also recorded: No significant differences"}
    ]},
    {"compound": "COc1cccc(NCC(F)Cn2c3ccc(Br)cc3c3cc(Br)ccc32)c1", "note": "(stereo not shown) [Example P7C3A20, N-(3-(3,6-dibromo-9H-carbazol-9-yl)-2-fluoropropyl)-3-methoxyaniline]", "values": [
      {"measurement": "hERG channel binding", "setting": "hERG channel", "value": "no hERG channel binding"}
    ]},
    {"compound": "OC(CNc1ccccc1)Cn1c2ccc(Br)cc2c2cc(Br)ccc21", "note": "(stereo not shown) [Example P7C3]", "values": [
      {"measurement": "accelerating rotarod performance", "setting": "[2]; [3]", "value": "significantly improved performance in the accelerating rotarod task"},
      {"measurement": "age at neurological severity score of 2", "setting": "[2]; [3]", "value": "significantly delays the age at which G93A-SOD1 mice attain a neurological severity score of 2"},
      {"measurement": "disease progression: time point of drop to 10% below maximum weight", "setting": "[2]; [3]", "value": "slows disease progression"},
      {"measurement": "walking gait (ink footprint)", "setting": "[2]; [3]", "value": "preservation of normal gait on day 118"},
      {"measurement": "survival", "setting": "[2]; 20 mg/kg/day from 40 days of age", "value": "did not translate into increased survival of the animals"}
    ]}
  ]
}
